# Measured values as given in patent US11382907B2, “Methods and compositions for treating aging-associated impairments using CCR3-inhibitors” (Alkahest, Inc., priority 2017, dated 2022).
# “Also recorded” adds a separate entry of the source.
# Columns and labels:
# aged C57Bl/6 mice = assay: Y-maze test in aged mice; type: in vivo
# Procedure: A large Y-maze test assesses short-term memory of the familiarity of a specific context. Mice are brought to the experimental room for at least 30 min of acclimation to the experimental room conditions (dim lighting) prior to testing. For the initial training trial, the mouse is placed at the end of one arm of a large Y-maze designated “start arm” (arm length: 15 inches). The third arm of the maze is blocked off, allowing the mouse to explore two of the three arms freely (“start arm” and “familiar arm”) for 5 min. Each arm contains spatial cues. One hour later, the mouse is placed back into the maze in the “start arm” and allowed to explore all three arms with the third arm unblocked (“novel arm”). Movements in and out of each arm are tracked using automated tracking software (CleverSys). Testing is performed under dim lighting, and the apparatus is cleaned with 70% ethanol between trials.
# (§1) Two-month-old or 18-month-old C57Bl/6 mice were dosed with either IgG antibody control by IP injection or Compound 1 subcutaneously by Alzet osmotic pump for either 2 or 4 weeks. During the last week of treatment, mice were subjected to behavior testing prior to perfusion on the last day of treatment. All mice received 5 consecutive days of BrdU injection at 150 mg/kg IP immediately prior to treatment start.
# as §1, with “Three-month-old” for “Two-month-old”, “16.5-month-old” for “18-month-old”, “vehicle” for “IgG antibody”, “control” for “control by IP injection”, “for” for “for either 2 or”
# 23-month-old C57Bl/6 mice were dosed with either vehicle control or Compound 1 by oral gavage twice daily for 19 days. After 11 days of treatment, mice were subjected to Y maze testing.
# 23-month-old C57Bl/6 mice were dosed with either vehicle control or Compound 1 subcutaneously twice daily for 21 days. Three weeks later, mice were subjected to behavior testing, and sacrificed the day following the last behavior test.
# [1] = tested on: human eosinophils activated by human eotaxin-1; assay: Eosinophil shape change (ESC) assay (FACS, whole blood); type: cell-based; conditions: whole blood from humans treated with Compound 1, incubated with human recombinant eotaxin-1
# Procedure: The ESC determines the shape change of human eosinophils activated by human eotaxin-1 (PreProTech, Rocky Hill, N.J.) compared to native eosinophils. The change is detected as the change in the forward-scatter measured by FACS (fluorescence activated cell sorter). The mean forward scatter of the autofluorescence (eosinophil) population for each sample was determined in conjunction with the mean of each set of sample triplicates. Methods of determining ESC have been previously described and are known in the art.
# Whole blood from humans treated with Compound 1 was incubated with human recombinant eotaxin-1 to trigger eosinophil shape change (FIG. 34A) or CCR3 receptor internalization (FIG. 34B).
# [2] = Compound plasma levels in mice under Alzet pump infusion; type: in vivo, C57BL/6 mice; conditions: C57BL/6, mouse, other: Alzet pump infusion (perfused), 25 µg/hr, mean±s.e.m., read-out: level of the compound in plasma
# Procedure: Compound levels were measured by MS/MS by Quintara (Hayward, Calif.).
# FIG. 6 depicts the levels of the compound of the invention that were detected in mouse CSF for both the young and old groups (both below 10 nM).
# [3] = tested on: CD68+ activated microglia; assay: IHC of CD68+ activated microglia in hippocampus of mice given daily LPS; type: in vivo, C57Bl/6 mice; conditions: 3-month-old mice, daily LPS IP 7 weeks, 30 mg/kg PO BID 4 weeks
# Description: Mice were taken down on the day following the end of behavior testing. Anesthesia was induced by 2,2,2-tribromoethanol and mice were subsequently perfused with 0.9% saline trans-cardially. The brains were dissected and cut sagitally in two even halves. One half was snap frozen for later use in dry ice, and the other was fixed in 4% paraformaldehyde in PBS for use in immunohistochemistry. After two days of fixation, the hemibrains were transferred to a 30% sucrose in PBS solution and changed after two days. Hemibrains were sectioned at 30 um on a microtome at −22° C. Brain sections were stored in cryoprotectant media at −20° C. until needed for staining. Blocking was done on free floating sections in the appropriate serum at 10% serum in PBST 0.5%. Primary antibodies were incubated overnight at 4 C. For light microscopy, the following antibodies were used in the given concentrations: DCX, 1:200, Santa Cruz BioTech, CD68, 1:1000. AbD Serotec. Secondary biotinylated antibodies were applied the next day at a concentration of 1:300. Staining visualization was achieved by reaction with the ABC kit (Vector) and diaminobenzidine (Sigma). Dehydration of the mounted slides was achieved using ethanol and xylene dips. Images were acquired on a Leica light microscope at 5× magnification. […]
# blood eosinophils = assay: Oxazolone-induced model of eosinophilia in hairless mice (CBC); type: in vivo; conditions: 3-month-old hairless mice, oxazolone every other day, 30 mg/kg PO BID 2 weeks
# Procedure: 3-month-old hairless mice were treated with oxazolone (Ox) every other day and treated with control saline or 30 mg/kg Compound 1 for 2 weeks BID, PO.
# Treatment Groups: • Treatment Group 1, Vehicle treatment: 3-month-old Hairless mice (n=3) received twice daily (BID) oral gavage (PO) treatment of vehicle solution for 2 weeks. • Treatment Group 2, Vehicle treatment and Oxazolone treatment: 3-month-old Hairless mice (n=6) received twice daily (BID) oral gavage (PO) treatment of vehicle solution for 2 weeks. • Treatment Group 3, Compound 1 treatment and Oxazolone treatment: 3-month-old Hairless mice (n=6) received twice daily (BID) oral gavage (PO) treatment of Compound 1, 30 mg/kg, for 2 weeks.
# [4] = 23-month-old mice, 30 mg/kg SQ BID 21 days, tested three weeks later
# [5] = 23-month-old mice, 30 mg/kg oral gavage BID, tested after 11 days
smiles,measurement,setting,value
Cc1cc(C(=O)N(C)C)cc(NC(=O)[C@H]2CCC(=O)N2C2CCN(Cc3ccc(Cl)c(C)c3)CC2)n1 [Compound 1],cognitive performance in the cued Y-maze,"aged C57Bl/6 mice; 16.5-month-old mice, four-week subcutaneous dosing by pump",improved cognitive performance
same,performance in the cued Y-maze,"aged C57Bl/6 mice; 18-month-old mice, low or high infusion for 2 or 4 weeks",improvement in the cued Y-maze
same,Y-maze duration of time spent in the novel arm,aged C57Bl/6 mice; [4],exhibited intact memory for the novel arm
same,Y-maze number of visits to the novel arm,aged C57Bl/6 mice; [4],exhibited intact memory for the novel arm
same,memory in the Y-maze,aged C57Bl/6 mice; [4],significantly improved memory
same,velocity during the Y-maze test,aged C57Bl/6 mice; [4],significantly increased the velocity
same,Y-maze number of visits to the novel arm,aged C57Bl/6 mice; [5],exhibited intact memory for the novel arm
same,distance travelled during the Y-maze test,aged C57Bl/6 mice; [5],significantly increased the distance travelled
same,memory in the Y-maze,aged C57Bl/6 mice; [5],significantly improved memory
same,inhibition of eosinophil shape change versus plasma Compound 1 concentration,[1],robust concentration-dependent effect
same,concentration at 4 weeks,[2]; old (18-month) mice perfused 4 weeks at 0.5 μL/hr of 50 mg/mL solution,355 ± 43 nM
same,concentration at 2 weeks,[2]; young (2-month-old) mice perfused 2 weeks at 0.5 μL/hr of 50 mg/mL solution,352 ± 31 nM
same,CD68+ immunoreactivity (activated microglia) in hippocampus,[3],dramatically decreased CD68+ immunoreactivity; also recorded: robust trend towards decrease
same,blood eosinophils (percentage of WBC count),blood eosinophils,decreased the oxazolone-induced increase in blood eosinophils; also recorded: decreased an oxazolone-induced increase in blood eosinophils
